Source: US20120022116A1, “COMPOSITIONS AND METHODS FOR THE TREATMENT OF PATHOLOGICAL CONDITION(S) RELATED TO GPR35 AND/OR GPR35-HERG COMPLEX” (priority 2010, published 2012)
“Also recorded” adds a separate entry of the source. Like-named read-outs stand apart in the source and are kept apart here.

Columns and labels:
[1] = target: T1, GPR35 (Homo sapiens, UniProt Q9HC97); assay: Ca2+ mobilization assay (Fluo-4) in HEK-GPR35-Gqo5 cells; format: cell-based; settings: for Ca2+ moblization (HEK-GPR35-Gqo5): HEK293 cells co-expressing GPR35 and Gqo5, Fluo-4, compounds 10 μM; for Ca2+ mobilization signal in cells co-expressing GPR35 and Gqo5: engineered HEK293, 10 μM
T1 construct: myc; expressed in transfected cells; host or cells: HEK293, transient co-transfection (Lipofectamine LTX)
T1 sequence (Q9HC97 whole entry): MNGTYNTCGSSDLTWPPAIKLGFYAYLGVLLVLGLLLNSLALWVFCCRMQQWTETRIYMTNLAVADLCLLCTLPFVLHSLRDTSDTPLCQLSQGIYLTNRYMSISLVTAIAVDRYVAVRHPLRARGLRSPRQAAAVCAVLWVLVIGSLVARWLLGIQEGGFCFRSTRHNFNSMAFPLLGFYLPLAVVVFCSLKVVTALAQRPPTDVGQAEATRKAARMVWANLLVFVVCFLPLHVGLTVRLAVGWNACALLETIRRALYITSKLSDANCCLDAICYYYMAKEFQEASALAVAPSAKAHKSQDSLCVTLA

[2] = test system: hERG channel
[3] = target: T2, hERG channel (Homo sapiens, UniProt Q12809)
T2 sequence (Q12809 whole entry): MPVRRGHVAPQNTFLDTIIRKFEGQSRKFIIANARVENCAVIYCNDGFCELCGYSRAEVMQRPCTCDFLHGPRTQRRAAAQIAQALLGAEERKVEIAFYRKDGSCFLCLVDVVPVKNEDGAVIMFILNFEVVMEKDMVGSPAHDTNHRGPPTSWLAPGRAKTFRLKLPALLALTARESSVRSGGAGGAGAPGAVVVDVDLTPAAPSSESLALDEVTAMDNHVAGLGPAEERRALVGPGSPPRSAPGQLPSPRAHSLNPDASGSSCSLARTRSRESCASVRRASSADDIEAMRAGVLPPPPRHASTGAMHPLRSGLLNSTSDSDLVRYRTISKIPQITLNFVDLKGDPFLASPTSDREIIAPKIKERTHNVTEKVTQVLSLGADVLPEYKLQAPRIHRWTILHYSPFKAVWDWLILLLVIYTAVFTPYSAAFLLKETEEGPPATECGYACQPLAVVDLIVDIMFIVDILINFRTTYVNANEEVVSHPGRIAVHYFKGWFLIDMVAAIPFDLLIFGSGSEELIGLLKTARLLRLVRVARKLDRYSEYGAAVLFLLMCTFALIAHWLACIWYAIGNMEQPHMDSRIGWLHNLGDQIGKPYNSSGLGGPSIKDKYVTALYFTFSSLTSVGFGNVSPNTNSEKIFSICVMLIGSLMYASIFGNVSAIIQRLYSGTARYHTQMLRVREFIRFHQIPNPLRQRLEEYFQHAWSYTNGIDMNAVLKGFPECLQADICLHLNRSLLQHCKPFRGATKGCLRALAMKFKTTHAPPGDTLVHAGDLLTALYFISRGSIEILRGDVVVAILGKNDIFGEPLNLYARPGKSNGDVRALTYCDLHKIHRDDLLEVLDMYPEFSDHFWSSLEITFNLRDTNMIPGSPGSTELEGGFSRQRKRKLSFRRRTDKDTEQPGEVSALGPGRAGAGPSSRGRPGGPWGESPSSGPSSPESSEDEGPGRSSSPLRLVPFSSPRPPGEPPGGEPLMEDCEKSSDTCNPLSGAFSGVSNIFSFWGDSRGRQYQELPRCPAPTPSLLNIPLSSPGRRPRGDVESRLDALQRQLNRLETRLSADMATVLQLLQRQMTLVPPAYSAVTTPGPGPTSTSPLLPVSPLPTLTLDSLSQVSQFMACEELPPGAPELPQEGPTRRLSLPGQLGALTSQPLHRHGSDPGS

[4] = test system: GPR35; assay: DMR desensitization / antagonism mode against GPR35 agonist-induced DMR in HT29 cells; format: cell-based, human; settings: for Desenstization to GPR35 agonist: HT29 cells pretreated with compound, then GPR35 agonist
[5] = test system: HT29 cells; assay: Fluo-4 Ca2+ mobilization assay in native HT29 cells; format: cell-based, human; settings: Fluo-4 assay, 10 micromolar
Description: (§1) Fluo-4 Direct™ Calcium Assay Kit was purchased from Invitrogen (Starter pack, Cat. no. F10471). HEK293 cells (15000 cells/well) and HT29 cells (30000 cells/well) were seeded in polyD-lysine coated 384well plates (Corning Inc., Cat#3845), culture overnight at 37° C. The next day, Ca^2+ flux assay was performed following manufacturer's instruction and fluorescence ratio (340 nm/380 nm) was measured on FDSS (Functional Drug Screening System, Hamamatsu Photonics, Japan). Compounds were prepared as 10× stock (final concentration 10 μM) in the Ca^2+ assay buffer.
as §1, with “384 well” for “384well”, “Cat#3845) and cultured” for “Cat#3845), culture”, “day, the” for “day,”

[6] = test system: HEK293 cells expressing only Gqo5 or GPR35; assay: Ca2+ mobilization assay in HEK293 cells expressing only Gqo5 or only GPR35; format: cell-based, human; settings: engineered HEK293, 10 μM
Description: (§2) Ca^2+ flux assay with transient transfected cells were carried out in 96-well plates (Corning Inc, Cat#3664). HEK293 cells (25000 cells/well) were seeded on day 1. Cells were transfected with either myc-GPR35 or HA-Gqo5 or co-transfected with both plasmids (myc-GPR35/HA-Gqo5 DNA ratio 2:1) using Lipofectamine LTX (Invitrogen) on day 2. Ca^2+ flux assay was performed 24 hours after transfection.
as §2, with “assays” for “assay”, “assays were” for “assay was”

[7] = target: T2, hERG channel; assay: Automated patch clamp recording of hERG tail current (IonWorks); settings: hERG tail current ratio post/pre-compound, 50 uM
[8] = test system: GPR35; assay: GPR35 receptor internalization, immunofluorescence confocal imaging in HT29 cells; format: cell-based, human; settings: anti-GPR35 antibody
Description: HT29 cells were plated on a 8-well chamber slide (10,000 cells/well) and incubated at 37° C. for 24 hrs. Next day, cells were fixed with 4% formaldehyde in 1×PBS for 15 min, followed by blocking and permeabilization in a buffer that contains 4% goat serum, 0.1% BSA, 0.1% Triton X100 in 1×PBS for 2 hrs. After 5 min wash with PBS, fixed cells were incubated with primary antibody anti-GPR35 (Abcam) (1:300) in 3% BSA/PBS buffer for 24 hrs, followed by incubation with secondary antibody Alexa Fluor® 488 goat anti-rabbit IgG (H+L) (Invitrogen) (1:250) in 3% BSA/PBS for 1 hr at room temperature. Cells were finally washed once with PBS and sealed with 1.5 mm thick glass cover-slip. Dried slides were stored at 4° C. until imaging. Confocal imaging was performed with Zeiss confocal microscope Axiovert 40. […] Confocal images were analyzed using MacBiophotonics Image J software (http://www.macbiophotonics.ca/downloads.htm).
HT29 cells were plated on a 8-well chamber slide (10,000 cells/well) and incubated at 37° C. for 24 hrs. […] Confocal images were analyzed using MacBiophotonics Image J software (http://www.macbiophotonics.ca/downloads.htm).
HT29 cells were plated on a 8-well chamber slide (10,000 cells/well) and incubated at 37° C. for 24 hrs. […] Confocal images were analyzed using MacBiophotonics Image J software (http://www.macbiophotonics.ca/downloads.htm). […]

[9] = test system: HT29 cells; assay: cAMP-Glo assay in HT29 cells; format: cell-based, human; settings: for increase in intracellular cAMP concentration: HT29 cells, Gs readout; for suppression in intracellular cAMP concentration: forskolin co-stimulated HT29 cells, Gi readout
Description: (§3) Cells were plated in 384well plates (BD Bioscience, Cat#354660) (10000 cells/well for HEK293, 20000 cells/well for HT29). Cells were cultured in complete growth medium overnight. The next day cAMP-Glo assay was performed according to manufacturer's instruction (Promega, Cat#V1502). Cells were incubated with 20 μM compounds in induction buffer with or without 0.5 μM or 5 μM forskolin for 30 minutes before adding lysis buffer. Luminescence was measured using Tecan SafireII reader.
as §3, with “384 well” for “384well”, “Cat# 354660)” for “Cat#354660)”, “Cat#V 1502).” for “Cat#V1502).”
as §3, with “in 384 well” for “in 384well”, “Bioscience, Cat# 354660)” for “Bioscience, Cat#354660)”, “HT29). The cells” for “HT29). Cells”, “day a” for “day”, “Cat#V1502). The cells” for “Cat#V1502). Cells”

[10] = test system: HEK-hERG cells
[11] = test system: hERG channel; assay: Cross-desensitization DMR assay against hERG activator mallotoxin-induced DMR in HT29 cells
[12] = test system: HEK-hERG cells; assay: DMR assay in HEK-hERG cells; settings: zaprinast 10 μM
[13] = test system: HEK-293 cells; assay: DMR assay in parental HEK-293 cells; format: cell-based, human; settings: zaprinast 10 μM
[14] = target: T2, hERG channel; parameters: expressed in transfected cells; settings: 10 μM; cited from earlier work
[15] = listed as 6-bromo-3-methylthieno[3,2-b]thiophene-2-carboxylic acid

**Q.** Which “Ca2+ moblization (HEK-GPR35-Gqo5)” value [1] does the source give for O=[N+]([O-])c1cc2nc(O)c(O)nc2cc1[N+](=O)[O-] [DNQX] here?
**A.** active

**Q.** And the “Ca2+ mobilization signal in cells co-expressing GPR35 and Gqo5” value [1]?
**A.** active

**Q.** And the “Desenstization to hERG activator” value [2]?
**A.** partially desenstized

**Q.** And the “Electrophysiology (HEK-hERG)” value [3]?
**A.** inactive

**Q.** And the “Desenstization to GPR35 agonist” value [4]?
**A.** desenstized

**Q.** For Cc1c(C(=O)O)sc2c(Br)csc12 [Compound 13, 3-methyl-6-bromo-thieno[3,2-b]thiophene-2-carboxylic acid], which “Ca2+ mobilization signal in HT29 cells” value [5, 15] is on record?
**A.** unable to cause any detectable Ca^2+ signal

**Q.** And the “Ca2+ mobilization signal in cells expressing only Gqo5 or GPR35” value [6]?
**A.** failed to cause any obvious Ca^2+ mobilization signal

**Q.** And the “Electrophysiology (HEK-hERG)” value [7]?
**A.** activator

**Q.** What about the GPR35 receptor internalization [8, 15] of the same compound?
**A.** underwent internalization; also recorded: caused receptor internalization

**Q.** And the “Ca2+ moblization (HEK-GPR35-Gqo5)” value [1]?
**A.** inactive

**Q.** And the “Ca2+ mobilization signal in cells co-expressing GPR35 and Gqo5” value [1]?
**A.** triggered quite obvious Ca^2+ signal

**Q.** What about the “increase in intracellular cAMP concentration” value [9] of the same compound?
**A.** neither zaprinast nor 6-bromo-3-methylthieno[3,2-b]thiophene-2-carboxylic acid was able to cause increase in intracellular cAMP concentration

**Q.** What about the “suppression in intracellular cAMP concentration” value [9] of the same compound?
**A.** neither zaprinast nor 6-bromo-3-methylthieno[3,2-b]thiophene-2-carboxylic acid cause any suppression in intracellular cAMP concentration

**Q.** And the “Desenstization to GPR35 agonist” value [4]?
**A.** desenstized

**Q.** And the “desensitization / attenuation of the GPR35 agonist (zaprinast, NPPB) DMR signal in HT29 cells” value ([4]; pretreatment, zaprinast 400 nM)?
**A.** caused desensitization

**Q.** With Cc1cccc(Nc2ccccc2C(=O)O)c1C [Mefenamic Acid] as the compound, how does the “Ca2+ moblization (HEK-GPR35-Gqo5)” value [1] read?
**A.** inactive

**Q.** And the “Desenstization to hERG activator” value [2]?
**A.** partially desenstized

**Q.** What about the “Desenstization to GPR35 agonist” value [4] of the same compound?
**A.** desenstized

**Q.** What does the source list for CCCOc1ccccc1-c1nc2nn[nH]c2c(=O)[nH]1 [zaprinast]?
**A.** Ca2+ mobilization signal in HT29 cells [5]: failed to cause any significant Ca^2+ mobilization; also recorded: unable to cause any detectable Ca^2+ signal; also recorded: did not result in any detectable Ca^2+ mobilization signal; Ca2+ mobilization signal in HT29 cells ([5]; listed as Zaprinast): did not result in any detectable Ca^2+ mobilization signal; Ca2+ mobilization signal in cells expressing only Gqo5 or GPR35 [6]: failed to cause any obvious Ca^2+ mobilization signal; also recorded: not in either parental cell, or the engineered cells expressing either GPR35 or Gqo5; impact on the mallotoxin DMR signal in HEK-hERG cells [10]: little or no impact; attenuation of the mallotoxin DMR signal in HT29 cells ([11]; pretreatment, mallotoxin 16 micromolar): dose-dependently, partially attenuated; also recorded: partially attenuate; also recorded: dose-dependently desensitized; DMR signal in HEK-hERG cells [12]: net-zero DMR signal; DMR signal in HEK-293 cells [13]: net-zero DMR signal; Electrophysiology (HEK-hERG) [7]: inactive; GPR35 receptor internalization [8]: underwent internalization; also recorded: caused receptor internalization; also recorded: significant receptor internalization; Ca2+ moblization (HEK-GPR35-Gqo5) [1]: active; Ca2+ mobilization signal in cells co-expressing GPR35 and Gqo5 [1]: triggered quite obvious Ca^2+ signal; also recorded: triggered a detectable Ca^2+ mobilization signal; also recorded: active; increase in intracellular cAMP concentration [9]: neither zaprinast nor 6-bromo-3-methylthieno[3,2-b]thiophene-2-carboxylic acid was able to cause increase in intracellular cAMP concentration; suppression in intracellular cAMP concentration [9]: neither zaprinast nor 6-bromo-3-methylthieno[3,2-b]thiophene-2-carboxylic acid cause any suppression in intracellular cAMP concentration; Desenstization to GPR35 agonist [4]: desenstized; desensitization / attenuation of the GPR35 agonist (zaprinast, NPPB) DMR signal in HT29 cells ([4]; pretreatment, zaprinast 400 nM): dose-dependently caused desensitization

**Q.** For CC(=O)c1c(O)c(C)c(O)c(Cc2c(O)c3c(c(C(=O)/C=C/c4ccccc4)c2O)OC(C)(C)C=C3)c1O [Mallotoxin, mallotoxin], which “shift of the half maximal activation voltage (V1/2) to the hyperpolarizing direction” value [14] is on record?
**A.** more than 25 mV

**Q.** And the “Desenstization to hERG activator” value ([11]; HT29 cells pretreated with compound, then hERG activator mallotoxin)?
**A.** desenstized

**Q.** What about the “DMR signal in HEK-293 cells” value [13] of the same compound?
**A.** no detectable DMR signal (i.e., net-zero DMR)

**Q.** And the “Electrophysiology (HEK-hERG)” value [7]?
**A.** activator

**Q.** And the “desensitization / attenuation of the GPR35 agonist (zaprinast, NPPB) DMR signal in HT29 cells” value [4]?
**A.** dose-dependently, partially inhibited; also recorded: partially attenuate; also recorded: dose-dependently desensitized

**Q.** What about the “Desenstization to GPR35 agonist” value [4] of the same compound?
**A.** desenstized
